pIC50: −log10 of the molar value. Read-outs that look alike come from different tables or passages of the source.
How the values were obtained:
Assay type in all cases: biochemical
FAK kinase = FAK kinase (Homo sapiens, UniProt Q05397); experiment: FAK kinase activity inhibition assay, method A (HTRF) and method B (Lantha screen)
Protocol: The HTRF method was used to evaluate the inhibitory activity of the compounds against FAK kinase. […]. The reaction conditions were: FAK kinase at 0.1 ng/µL; ATP 10 µM; substrate concentration 1 µM. Compounds were serially diluted in DMSO and shaken on a shaker for 20 minutes. Prepare 2× kinase using 1× reaction buffer. Transfer 25 nL compound to a 384-well plate using Echo 655. Add 2.5 µL kinase per well. Seal the plate with sealing film, centrifuge at 1000 rpm for 60 seconds, and incubate at 25°C for 12 hours. Prepare 2× ATP/substrate mix using 1× enzyme reaction buffer and add 2.5 µL 2× ATP/substrate mix per well. Seal the plate with sealing film, centrifuge at 1000 rpm for 60 seconds, and incubate at 25°C for 50 minutes. Prepare 2×XL665 & antibody solution using HTRF detection buffer, and add 5 µL per well. Incubate at 25°C for 60 minutes. Read fluorescence at 620 nm (Cryptate) and 665 nm (XL665). Calculate the ratio per well (Ratio_665/620 nm). % Inhibition = 100% - [(Compound Ratio - Positive Control Ratio)/ (Negative Control Ratio - Positive Control Ratio)] × 100%. IC50 values (half-maximal inhibitory concentration) were calculated by nonlinear regression using GraphPad Prism 7.0. Y = Bottom + (Top - Bottom)/ (1 + 10^ ((LogIC50 - X) × Hill Slope)), where X is the log of compound concentration and Y is the % inhibition.
The Lantha screen assay was used to evaluate the FAK kinase inhibitory activity. Compounds were dissolved in 100% DMSO at 10 mM stock concentration. Prepare 1× kinase buffer (25 mM HEPES, pH 7.5, 0.01 mM Triton, 0.5 mM EGTA, 0.01% Brij-35). Dilute compounds in a gradient, and transfer 5 µL compound into the reaction plate. Prepare 2× kinase solution with 1× Kinase buffer. Add 5 µL kinase solution to compound and positive control wells, and 5 µL 1× Kinase buffer to negative control wells. Mix reaction plate by shaking. Prepare 4× ATP/Fluorescein-polyGT substrate mix with 1× Kinase buffer. Add 2.5 µL substrate solution to initiate the reaction. Shake and incubate at room temperature for 30 minutes. Prepare 2× detection reagent (2 nM antibody, 10 mM EDTA) and add 10 µL per well to stop the reaction. Briefly centrifuge, mix, and incubate for 60 minutes. Read fluorescence at 340 nm excitation and 520 nm/495 nm emission using EnVision. Collect data and calculate 520 nm/495 nm ratio. Calculate the inhibition percentage using the formula: % Inhibition = (Max - Sample Ratio)/(Max - Min) × 100, where min is the mean of negative control wells (no enzyme activity), and max is the mean of positive control wells (DMSO-inhibited conversion rate).Use XLFit Excel add-in version 5.4.0.8 to determine the IC50 values of each compound against the enzyme activity: Y = Bottom + (Top - Bottom)/(1 + (IC50/X)^HillSlope).

HPK1 kinase = HPK1 kinase (Homo sapiens, UniProt Q92918); experiment: HPK1 kinase activity inhibition assay (Mobility shift assay)
Protocol: Measure compound inhibitory activity against HPK1 kinase using Mobility shift assay. Compounds were dissolved in 100% DMSO to prepare 10 mM stock solutions. 1× Kinase buffer was prepared. Test compounds were serially diluted in 5-fold gradients, and 250 nL of 100× final concentration compounds were transferred to destination plate 3573 using an Echo 550 liquid handler. A 2.5× final concentration kinase solution was prepared in 1× Kinase Buffer. 10 µL of the 2.5× kinase solution was added to both compound wells and positive control wells, while 10 µL of 1× Kinase buffer was added to negative control wells. The plate was centrifuged at 1000 rpm for 30 seconds, mixed by orbital shaking, and incubated at room temperature for 10 minutes. A 5/3× final concentration mixture of ATP and Kinase substrate 25 was prepared in 1× Kinase buffer. 15 µL of the 5/3× ATP/substrate mixture was added to initiate the reaction. The 384-well plate was centrifuged at 1000 rpm for 30 seconds, mixed by shaking, and incubated at room temperature for 120 minutes. The kinase reaction was terminated by adding 30 µL stop solution, followed by centrifugation at 1000 rpm for 30 seconds and mixing. Conversion rates were measured using a Caliper EZ Reader. The inhibition percentage was calculated as: %Inhibition = (Conversion%_max - Conversion%_sample)/(Conversion%_max - Conversion%_min) × 100. Where Conversion%_sample: Conversion rate reading of test samples; Conversion%_min: Mean value of negative control wells (representing conversion rate without enzyme activity); Conversion%_max: Mean value of positive control wells (representing conversion rate without compound inhibition). Dose-response curves were plotted with log(concentration) as the X-axis and percentage inhibition as the Y-axis. Curve fitting was performed using GraphPad Prism 5 software with the "log(inhibitor) vs. response - Variable slope" model to derive IC50 values for each compound's enzyme inhibitory activity. The fitting formula was: Y = Bottom + (Top - Bottom)/(1 + 10^((LogIC50 - X) × HillSlope)).

CDK7/CycH/MAT1 kinase = CDK7/CycH/MAT1 kinase (Homo sapiens, UniProt P50613); experiment: CDK7 kinase activity inhibition assay (ADP-Glo)
Protocol: Measure compound inhibitory activity against CDK7/CycH/MAT1 kinase using ADP-Glo assay. 1× kinase reaction buffer was prepared (working concentrations: HEPES 50 mM, MgCl2 10 mM, Brij35 0.01%, DTT 2 mM). The kinase reaction conditions were as follows: Kinase concentration: 3.5 ng/µL; Substrate mixture working concentrations: ATP 30 µM, CDK substrate 0.1 mg/ mL. Compounds were serially diluted in DMSO and shaken on an orbital shaker for 20 minutes. 2× kinase solution was prepared using 1× kinase buffer. 1 µL of compound solution was transferred to a 384-well plate. 2 µL of kinase solution was added to each well of the reaction plate. The plate was sealed with adhesive film, centrifuged at 1000 rpm for 60 seconds, and incubated at 25°C for 10 minutes. 4× ATP&substrate mixture was prepared using 1× kinase buffer. 1 µL of 4× ATP&substrate mixture was added to the reaction plate. The plate was sealed with adhesive film, centrifuged at 1000 rpm for 60 seconds, and incubated at 25°C for 60 minutes. 4 µL of ADP-Glo reagent was transferred to the 384-well reaction plate, centrifuged at 1000 rpm for 1 minute, and incubated at 25°C for 40 minutes. 8 µL of Detection solution was transferred to the 384-well reaction plate, centrifuged at 1000 rpm for 1 minute, and incubated at 25°C for 40 minutes. Relative luminescence units (RLU) were measured using a BMG microplate reader, with signal intensity representing kinase activity level. The inhibition percentage was calculated as follows: % inhibition = 100% - [(Compound RLU - Positive Control RLU)/(Negative Control RLU - Positive Control RLU)] × 100%. The IC50 values (half-maximal inhibitory concentration) of compounds were determined by fitting the data to the following nonlinear regression equation using GraphPad Prism 7.0 software: Y = Bottom + (Top - Bottom)/(1 + 10^((LogIC50 - X) × Hill Slope)), where: X = log(compound concentration), Y = % inhibition.

[1] = Table 4, ATP 30 µM, read-out: CDK7 (IC50)

Sequence of FAK kinase (Q05397 whole entry): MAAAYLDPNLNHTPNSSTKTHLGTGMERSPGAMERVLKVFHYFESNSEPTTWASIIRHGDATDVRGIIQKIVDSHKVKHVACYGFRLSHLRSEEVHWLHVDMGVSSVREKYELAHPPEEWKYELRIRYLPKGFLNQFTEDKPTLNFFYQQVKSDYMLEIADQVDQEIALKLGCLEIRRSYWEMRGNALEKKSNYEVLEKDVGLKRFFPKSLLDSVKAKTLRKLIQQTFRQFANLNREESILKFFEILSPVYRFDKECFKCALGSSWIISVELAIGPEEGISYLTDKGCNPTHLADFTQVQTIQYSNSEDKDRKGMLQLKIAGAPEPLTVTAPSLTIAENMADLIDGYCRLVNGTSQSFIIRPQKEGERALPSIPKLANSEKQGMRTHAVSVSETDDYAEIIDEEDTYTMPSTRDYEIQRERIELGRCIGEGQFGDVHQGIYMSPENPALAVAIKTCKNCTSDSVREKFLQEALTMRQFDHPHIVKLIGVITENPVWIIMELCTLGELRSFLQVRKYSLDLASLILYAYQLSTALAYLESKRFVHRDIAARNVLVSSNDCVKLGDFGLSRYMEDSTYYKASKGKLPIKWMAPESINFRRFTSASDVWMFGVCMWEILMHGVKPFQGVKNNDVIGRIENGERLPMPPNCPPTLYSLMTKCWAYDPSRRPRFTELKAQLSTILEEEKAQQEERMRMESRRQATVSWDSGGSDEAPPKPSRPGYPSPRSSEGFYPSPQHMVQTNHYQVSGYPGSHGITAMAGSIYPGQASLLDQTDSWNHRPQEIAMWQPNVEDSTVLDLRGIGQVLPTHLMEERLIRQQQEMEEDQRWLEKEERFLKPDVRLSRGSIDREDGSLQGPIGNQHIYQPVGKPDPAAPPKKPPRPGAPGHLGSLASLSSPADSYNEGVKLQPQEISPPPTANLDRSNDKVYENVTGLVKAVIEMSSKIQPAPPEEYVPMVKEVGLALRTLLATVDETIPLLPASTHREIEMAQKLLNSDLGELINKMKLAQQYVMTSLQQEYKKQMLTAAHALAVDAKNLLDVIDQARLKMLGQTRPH
Sequence of HPK1 kinase (Q92918 whole entry): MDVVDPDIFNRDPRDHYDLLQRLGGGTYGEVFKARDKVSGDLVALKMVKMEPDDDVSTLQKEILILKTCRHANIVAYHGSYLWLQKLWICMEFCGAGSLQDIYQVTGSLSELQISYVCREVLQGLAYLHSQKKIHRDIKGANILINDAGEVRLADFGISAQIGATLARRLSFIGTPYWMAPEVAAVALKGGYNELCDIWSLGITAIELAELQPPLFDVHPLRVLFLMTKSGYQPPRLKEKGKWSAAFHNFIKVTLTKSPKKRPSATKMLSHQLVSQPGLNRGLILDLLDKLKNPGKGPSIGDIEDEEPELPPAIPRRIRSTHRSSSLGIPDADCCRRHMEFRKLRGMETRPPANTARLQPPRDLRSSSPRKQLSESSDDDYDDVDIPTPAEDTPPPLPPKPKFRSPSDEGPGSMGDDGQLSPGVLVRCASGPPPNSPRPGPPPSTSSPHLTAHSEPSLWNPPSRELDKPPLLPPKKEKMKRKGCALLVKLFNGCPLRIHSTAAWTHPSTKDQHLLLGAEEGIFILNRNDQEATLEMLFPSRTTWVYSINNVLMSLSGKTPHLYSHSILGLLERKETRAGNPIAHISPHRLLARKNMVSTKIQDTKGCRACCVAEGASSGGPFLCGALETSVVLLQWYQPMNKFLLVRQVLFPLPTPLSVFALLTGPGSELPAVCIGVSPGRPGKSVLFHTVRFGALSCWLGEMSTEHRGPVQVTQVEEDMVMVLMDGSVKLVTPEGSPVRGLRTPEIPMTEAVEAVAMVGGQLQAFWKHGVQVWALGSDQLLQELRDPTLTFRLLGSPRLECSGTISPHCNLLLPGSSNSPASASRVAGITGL
Sequence of CDK7/CycH/MAT1 kinase (P50613 whole entry, species assumed): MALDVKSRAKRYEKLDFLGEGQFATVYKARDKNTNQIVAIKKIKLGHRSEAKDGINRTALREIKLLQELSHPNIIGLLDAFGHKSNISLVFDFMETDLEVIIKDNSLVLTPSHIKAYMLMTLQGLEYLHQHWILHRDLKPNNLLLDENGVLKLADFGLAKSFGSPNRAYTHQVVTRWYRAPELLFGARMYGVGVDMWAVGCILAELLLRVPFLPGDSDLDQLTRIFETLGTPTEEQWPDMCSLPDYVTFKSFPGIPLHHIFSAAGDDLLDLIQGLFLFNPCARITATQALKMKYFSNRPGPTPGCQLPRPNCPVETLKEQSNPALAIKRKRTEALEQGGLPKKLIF
Sequence of CDK7/CycH/MAT1 kinase (P51946 whole entry partner, species assumed): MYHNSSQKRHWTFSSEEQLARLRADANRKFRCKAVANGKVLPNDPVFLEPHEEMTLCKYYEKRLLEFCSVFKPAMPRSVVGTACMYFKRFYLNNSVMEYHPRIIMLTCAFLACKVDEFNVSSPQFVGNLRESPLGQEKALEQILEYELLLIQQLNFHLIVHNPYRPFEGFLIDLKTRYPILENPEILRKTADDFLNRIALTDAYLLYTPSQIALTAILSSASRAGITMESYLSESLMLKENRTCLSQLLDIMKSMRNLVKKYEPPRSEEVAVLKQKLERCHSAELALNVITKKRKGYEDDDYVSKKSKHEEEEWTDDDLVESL
Sequence of CDK7/CycH/MAT1 kinase (P51948 whole entry partner, species assumed): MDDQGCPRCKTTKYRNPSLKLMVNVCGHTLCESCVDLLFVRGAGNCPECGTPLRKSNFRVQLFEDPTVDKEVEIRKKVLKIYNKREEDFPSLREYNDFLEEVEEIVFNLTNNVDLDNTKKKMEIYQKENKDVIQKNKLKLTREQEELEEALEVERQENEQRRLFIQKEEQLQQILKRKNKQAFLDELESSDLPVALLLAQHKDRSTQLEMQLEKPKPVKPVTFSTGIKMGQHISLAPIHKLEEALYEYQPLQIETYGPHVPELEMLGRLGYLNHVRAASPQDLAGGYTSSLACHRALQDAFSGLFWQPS

| SMILES | pIC50 (FAK kinase) | pIC50 (HPK1 kinase) | pIC50 (CDK7/CycH/MAT1 kinase) | pIC50 (HPK1 kinase; Table 4, read-out: HPK1 (IC50)) | pIC50 (CDK7/CycH/MAT1 kinase; [1]) |
| --- | --- | --- | --- | --- | --- |
| COc1cc2c(cc1Nc1ncc(Cl)c(Nc3ccccc3S(=O)(=O)C(C)C)n1)OC[C@@H]1CN(C3CCOCC3)CCN21 [Compound C1S] | > 9.00 |  |  |  |  |
| COc1cc2c(cc1Nc1ncc(Cl)c(Nc3ccccc3S(=O)(=O)C(C)C)n1)OC[C@@H]1CN(C3CCN(C)CC3)CCN21 [Compound C2S] | > 9.00 |  |  |  |  |
| CNC(=O)c1ccccc1Nc1cc(Nc2cc3c(cc2OC)N2CCN(C4CCN(C)CC4)C[C@@H]2CO3)ncc1C(F)(F)F [Compound D2R] | > 9.00 | > 7.52 | > 7.82 |  |  |
| CNC(=O)c1ccccc1Nc1cc(Nc2cc3c(cc2OC)N2CCN(C4CCN(C)CC4)C[C@H]2CO3)ncc1C(F)(F)F [Compound D2S] | > 9.30 |  |  | > 7.52 | > 7.82 |
| CNC(=O)c1ccccc1Nc1cc(Nc2cc3c(cc2OC)N2CCN(C4CN(C)C4)C[C@H]2CO3)ncc1C(F)(F)F [Compound D4S] | > 9.00 |  |  | > 7.70 | > 8.00 |

— EP4653444A1, “FUSED TRICYCLIC COMPOUND AS KINASE INHIBITOR” (Hangzhou Innogate Pharma Co., Ltd., priority 2023, dated 2024)
